What was measured:
Format in all cases: in vivo
PS = assay: Herbicidal efficacy in relation to application timing in Indonesia (Table 5)
Description: (§1) Methyl 2-[[[[(4-methoxy-6-methyl-1,3,5-triazin-2-yl)amino]carbonyl]amino]sulfonyl]benzoate (Compound 1) and mixtures thereof with other compounds were applied as a spray (using a hand sprayer) to rice (either transplanted or direct seeded) in several rice growing areas in Southeast Asia and in the U.S. Tables 1-28 contain the results of these tests and clearly exemplify the utility of this invention. The details of each application are included in the appropriate table. [drawing 2]

Aeschynomene indica = assay: Late-post application in Beaumont, Texas, with 0.25% AG-98 (Table 9); conditions: 70 days after seeding
Description: as §1

Annual sedge (?) = assay: as above; conditions: 70 days after seeding
Description: as §1

Caperonia castaniifolia = assay: as above; conditions: 70 days after seeding
Description: as §1

Commelina communis = assay: as above; conditions: 70 days after seeding
Description: as §1

Echinochloa colonum = assay: as above; conditions: 70 days after seeding
Description: as §1

Eclipta alba [1] = assay: as above; conditions: 70 days after seeding
Description: as §1

Sesbania exaltata = assay: as above; conditions: 70 days after seeding
Description: as §1

rice [2] = assay: as above; conditions: 70 days after seeding
Description: as §1

[3] = system: transplanted rice (var. Nihonbare); assay: Crop tolerance of transplanted rice, combinations with Thiobencarb, Dimepiperate, Esprocarb and Dymron (Table 15); conditions: 15 days after application
Description: as §1

Eclipta alba [4] = assay: Herbicidal efficacy in United States (Table 16); conditions: 57 days after application
Description: as §1

rice [5] = assay: Herbicidal efficacy in United States (Table 16); conditions: 57 days after application
Description: as §1

rice [6] = assay: Effects in combination with Thiobencarb and Bensulfuron Methyl on rice growth (Table 22); conditions: rate 8 g ai/ha; var. Koshihikari, applied 7 days after transplanting, rated 21 days after application
Description: as §1

COC(=O)c1ccccc1S(=O)(=O)NC(=O)Nc1nc(C)nc(OC)n1 [Compound 1, Methyl 2-[[[[(4-methoxy-6-methyl-1,3,5-triazin-2-yl)amino]carbonyl]amino]sulfonyl]benzoate]
% CONTROL PS (PS; 4 WAT, 2 GAI/HA, evaluation 1): 0%
% CONTROL PS (PS; 4 WAT, 2 GAI/HA, evaluation 2): 0%
% CONTROL PS (PS; 4 WAT, 2 GAI/HA, evaluation 3): 0%
% CONTROL PS (PS; 4 WAT, 3 GAI/HA, evaluation 1): 0%
% CONTROL PS (PS; 4 WAT, 3 GAI/HA, evaluation 2): 0%
% CONTROL PS (PS; 4 WAT, 3 GAI/HA, evaluation 3): 0%
% CONTROL PS (PS; 4 WAT, 4 GAI/HA, evaluation 1): 0%
% CONTROL PS (PS; 4 WAT, 4 GAI/HA, evaluation 2): 0%
% CONTROL PS (PS; 4 WAT, 4 GAI/HA, evaluation 3): 0%
% CONTROL PS (PS; 4 WAT, 6 GAI/HA, evaluation 1): 0%
% CONTROL PS (PS; 4 WAT, 6 GAI/HA, evaluation 2): 0%
% CONTROL PS (PS; 4 WAT, 6 GAI/HA, evaluation 3): 0%
% CONTROL PS (PS; 4 WAT, 8 GAI/HA, evaluation 1): 0%
% CONTROL PS (PS; 4 WAT, 8 GAI/HA, evaluation 2): 0%
% CONTROL PS (PS; 4 WAT, 8 GAI/HA, evaluation 3): 0%
% CONTROL PS (PS; 5 WAT, 2 GAI/HA, evaluation 1): 0%
% CONTROL PS (PS; 5 WAT, 2 GAI/HA, evaluation 2): 0%
% CONTROL PS (PS; 5 WAT, 2 GAI/HA, evaluation 3): 0%
% CONTROL PS (PS; 5 WAT, 3 GAI/HA, evaluation 1): 0%
% CONTROL PS (PS; 5 WAT, 3 GAI/HA, evaluation 2): 0%
% CONTROL PS (PS; 5 WAT, 3 GAI/HA, evaluation 3): 0%
% CONTROL PS (PS; 5 WAT, 4 GAI/HA, evaluation 1): 0%
% CONTROL PS (PS; 5 WAT, 4 GAI/HA, evaluation 2): 0%
% CONTROL PS (PS; 5 WAT, 4 GAI/HA, evaluation 3): 0%
% CONTROL PS (PS; 5 WAT, 6 GAI/HA, evaluation 1): 0%
% CONTROL PS (PS; 5 WAT, 6 GAI/HA, evaluation 2): 0%
% CONTROL PS (PS; 5 WAT, 6 GAI/HA, evaluation 3): 0%
% CONTROL PS (PS; 5 WAT, 8 GAI/HA, evaluation 1): 0%
% CONTROL PS (PS; 5 WAT, 8 GAI/HA, evaluation 2): 0%
% CONTROL PS (PS; 5 WAT, 8 GAI/HA, evaluation 3): 0%
% INJURY OR CONTROL AI (Aeschynomene indica; 3 G/HA): 68%
% INJURY OR CONTROL AI (Aeschynomene indica; 6 G/HA): 62%
% INJURY OR CONTROL AI (Aeschynomene indica; 12 G/HA): 46%
% INJURY OR CONTROL SEDGE (Annual sedge (?); 3 G/HA): 43%
% INJURY OR CONTROL SEDGE (Annual sedge (?); 6 G/HA): 56%
% INJURY OR CONTROL SEDGE (Annual sedge (?); 12 G/HA): 56%
% INJURY OR CONTROL CC (Caperonia castaniifolia; 3 G/HA): 11%
% INJURY OR CONTROL CC (Caperonia castaniifolia; 6 G/HA): 19%
% INJURY OR CONTROL CC (Caperonia castaniifolia; 12 G/HA): 18%
% INJURY OR CONTROL COM (Commelina communis; 3 G/HA): 13%
% INJURY OR CONTROL COM (Commelina communis; 6 G/HA): 24%
% INJURY OR CONTROL COM (Commelina communis; 12 G/HA): 23%
% INJURY OR CONTROL EC (Echinochloa colonum; 3 G/HA): 26%
% INJURY OR CONTROL EC (Echinochloa colonum; 6 G/HA): 30%
% INJURY OR CONTROL EC (Echinochloa colonum; 12 G/HA): 24%
% INJURY OR CONTROL EA (Eclipta alba [1]; 3 G/HA): 13%
% INJURY OR CONTROL EA (Eclipta alba [1]; 6 G/HA): 23%
% INJURY OR CONTROL EA (Eclipta alba [1]; 12 G/HA): 15%
% INJURY OR CONTROL SE (Sesbania exaltata; 3 G/HA): 68%
% INJURY OR CONTROL SE (Sesbania exaltata; 6 G/HA): 62%
% INJURY OR CONTROL SE (Sesbania exaltata; 12 G/HA): 46%
% INJURY OR CONTROL RICE (rice [2]; 3 G/HA): 3%
% INJURY OR CONTROL RICE (rice [2]; 6 G/HA): 5%
% INJURY OR CONTROL RICE (rice [2]; 12 G/HA): 6%
CROP TOLERANCE (Nihonbare) DW, dry weight relative to untreated check ([3]; 4 GAI/HA): 107%
CROP TOLERANCE (Nihonbare) PH, plant height relative to untreated check ([3]; 4 GAI/HA): 103%
CROP TOLERANCE (Nihonbare) VA, visual crop injury ([3]; 4 GAI/HA): 0%
CROP TOLERANCE (Nihonbare) DW, dry weight relative to untreated check ([3]; 8 GAI/HA): 83%
CROP TOLERANCE (Nihonbare) PH, plant height relative to untreated check ([3]; 8 GAI/HA): 95%
CROP TOLERANCE (Nihonbare) VA, visual crop injury ([3]; 8 GAI/HA): 3%
% CONTROL OR INJURY EA (Eclipta alba [4]; 7 GAI/HA): 97%
% CONTROL OR INJURY EA (Eclipta alba [4]; 14 GAI/HA): 98%
% CONTROL OR INJURY EA (Eclipta alba [4]; 21 GAI/HA): 98%
% CONTROL OR INJURY RICE (rice [5]; 7 GAI/HA): 3%
% CONTROL OR INJURY RICE (rice [5]; 14 GAI/HA): 10%
% CONTROL OR INJURY RICE (rice [5]; 21 GAI/HA): 5%
CROP TOLERANCE DW (Dry weight relative to untreated check) (rice [6]): 92%
CROP TOLERANCE PH (Plant height relative to untreated check) (rice [6]): 99%
CROP TOLERANCE VA (Visual crop injury) (rice [6]): 0.5%

From patent EP0377642B1, “HERBICIDES FOR WEED CONTROL IN RICE” (E.I. DU PONT DE NEMOURS AND COMPANY, priority 1987, dated 1989)
